Measured values taken from the kinase profiling compilation of Christmann-Franck et al. (2016).
pIC50, pKd: −log10 of the molar value. Values belong to the molecule of their own block, whether it stands above or below them.

Experiments:
PIM2 (human) [1] = target: PIM2 (human) (UniProt Q9P1W9); test: KINOMEscan competition binding; details: compound 10.0 µM
MAP4K4 (human) = MAP4K4 (human) (UniProt O95819); test: KINOMEscan competition binding; details: compound 10.0 µM
PIK3CG (human) = PIK3CG (human) (UniProt P48736); test: KINOMEscan competition binding; details: compound 10.0 µM
[2] = test system: PIK3CA (human), P42336 [E545K]; test: KINOMEscan competition binding; details: compound 10.0 µM
DAPK1 (human) = DAPK1 (human) (UniProt P53355); test: KINOMEscan competition binding; details: compound 10.0 µM
PLK4 (human) = PLK4 (human) (UniProt O00444); test: KINOMEscan competition binding; details: compound 10.0 µM
CDK16 (human) = CDK16 (human) (UniProt Q00536); test: KINOMEscan competition binding; details: compound 10.0 µM
CDK7 (human) = CDK7 (human) (UniProt P50613); test: KINOMEscan competition binding; details: compound 10.0 µM
MINK1 (human) = MINK1 (human) (UniProt Q8N4C8); test: KINOMEscan competition binding; details: compound 10.0 µM
PIK3CB (human) = PIK3CB (human) (UniProt P42338); test: KINOMEscan competition binding; details: compound 10.0 µM
BTK (human) = BTK (human) (UniProt Q06187); test: KINOMEscan competition binding; details: compound 10.0 µM
HIPK1 (human) = HIPK1 (human) (UniProt Q86Z02); test: KINOMEscan competition binding; details: compound 10.0 µM
PIK3CA (human) = PIK3CA (human) (UniProt P42336); test: KINOMEscan competition binding; details: compound 10.0 µM
CSNK2A2 (human) = CSNK2A2 (human) (UniProt P19784); test: KINOMEscan competition binding; details: compound 10.0 µM
DAPK2 (human) = DAPK2 (human) (UniProt Q9UIK4); test: KINOMEscan competition binding; details: compound 10.0 µM
RPS6KA4 KD2 (human) = RPS6KA4 KD2 (human) (UniProt O75676); test: KINOMEscan competition binding; details: compound 10.0 µM
LATS2 (human) = LATS2 (human) (UniProt Q9NRM7); test: KINOMEscan competition binding; details: compound 10.0 µM
STK17B (human) = STK17B (human) (UniProt O94768); test: KINOMEscan competition binding; details: compound 10.0 µM
DAPK3 (human) = DAPK3 (human) (UniProt O43293); test: KINOMEscan competition binding; details: compound 10.0 µM
CSNK2A1 (human) = CSNK2A1 (human) (UniProt P68400); test: KINOMEscan competition binding; details: compound 10.0 µM
TAOK1 (human) = TAOK1 (human) (UniProt Q7L7X3); test: KINOMEscan competition binding; details: compound 10.0 µM
PIM1 (human) [3] = target: PIM1 (human) (UniProt P11309); test: KINOMEscan competition binding; details: compound 10.0 µM
MAP2K3 (human) = MAP2K3 (human) (UniProt P46734); test: KINOMEscan competition binding; details: compound 10.0 µM
PIK3CD (human) = PIK3CD (human) (UniProt O00329); test: KINOMEscan competition binding; details: compound 10.0 µM
PIM3 (human) = PIM3 (human) (UniProt Q86V86); test: KINOMEscan competition binding; details: compound 10.0 µM
PIM2 (human) [4] = target: PIM2 (human) (UniProt Q9P1W9); test: SelectScreen, TR FRET
PIM1 (human) [5] = target: PIM1 (human) (UniProt P11309); test: SelectScreen, TR FRET
IGF1R (human) = IGF1R (human) (UniProt P08069); test: KINOMEscan competition binding; details: compound 10.0 µM
CLK1 (human) = CLK1 (human) (UniProt P49759); test: KINOMEscan competition binding; details: compound 10.0 µM
DCLK2 (human) = DCLK2 (human) (UniProt Q8N568); test: KINOMEscan competition binding; details: compound 10.0 µM
PTK2B (human) = PTK2B (human) (UniProt Q14289); test: KINOMEscan competition binding; details: compound 10.0 µM
DCLK1 (human) = DCLK1 (human) (UniProt O15075); test: KINOMEscan competition binding; details: compound 10.0 µM
FER (human) = FER (human) (UniProt P16591); test: KINOMEscan competition binding; details: compound 10.0 µM
RPS6KA2 KD2 (human) = RPS6KA2 KD2 (human) (UniProt Q15349); test: KINOMEscan competition binding; details: compound 10.0 µM
ALK (human) = ALK (human) (UniProt Q9UM73); test: KINOMEscan competition binding; details: compound 10.0 µM
STK33 (human) = STK33 (human) (UniProt Q9BYT3); test: KINOMEscan competition binding; details: compound 10.0 µM
INSR (human) = INSR (human) (UniProt P06213); test: KINOMEscan competition binding; details: compound 10.0 µM
SLK (human) = SLK (human) (UniProt Q9H2G2); test: KINOMEscan competition binding; details: compound 10.0 µM
RPS6KA1 KD2 (human) = RPS6KA1 KD2 (human) (UniProt Q15418); test: KINOMEscan competition binding; details: compound 10.0 µM
RPS6KA6 KD2 (human) = RPS6KA6 KD2 (human) (UniProt Q9UK32); test: KINOMEscan competition binding; details: compound 10.0 µM
TNK1 (human) = TNK1 (human) (UniProt Q13470); test: KINOMEscan competition binding; details: compound 10.0 µM
CAMK2A (human) = CAMK2A (human) (UniProt Q9UQM7); test: KINOMEscan competition binding; details: compound 10.0 µM
TTK (human) [6] = target: TTK (human) (UniProt P33981); test: KINOMEscan competition binding
GAK (human) = GAK (human) (UniProt O14976); test: KINOMEscan competition binding; details: compound 10.0 µM
PTK2 (human) = PTK2 (human) (UniProt Q05397); test: KINOMEscan competition binding; details: compound 10.0 µM
PRKD3 (human) = PRKD3 (human) (UniProt O94806); test: KINOMEscan competition binding; details: compound 10.0 µM
PLK3 (human) = PLK3 (human) (UniProt Q9H4B4); test: KINOMEscan competition binding; details: compound 10.0 µM
CLK2 (human) = CLK2 (human) (UniProt P49760); test: KINOMEscan competition binding; details: compound 10.0 µM
CAMK1D (human) = CAMK1D (human) (UniProt Q8IU85); test: KINOMEscan competition binding; details: compound 10.0 µM
MYLK (human) = MYLK (human) (UniProt Q15746); test: KINOMEscan competition binding; details: compound 10.0 µM
PRKD1 (human) = PRKD1 (human) (UniProt Q15139); test: KINOMEscan competition binding; details: compound 10.0 µM
INSRR (human) = INSRR (human) (UniProt P14616); test: KINOMEscan competition binding; details: compound 10.0 µM
TTK (human) [7] = target: TTK (human) (UniProt P33981); test: SelectScreen, TR FRET

Sequence of TTK (human) (P33981 whole entry, looked up): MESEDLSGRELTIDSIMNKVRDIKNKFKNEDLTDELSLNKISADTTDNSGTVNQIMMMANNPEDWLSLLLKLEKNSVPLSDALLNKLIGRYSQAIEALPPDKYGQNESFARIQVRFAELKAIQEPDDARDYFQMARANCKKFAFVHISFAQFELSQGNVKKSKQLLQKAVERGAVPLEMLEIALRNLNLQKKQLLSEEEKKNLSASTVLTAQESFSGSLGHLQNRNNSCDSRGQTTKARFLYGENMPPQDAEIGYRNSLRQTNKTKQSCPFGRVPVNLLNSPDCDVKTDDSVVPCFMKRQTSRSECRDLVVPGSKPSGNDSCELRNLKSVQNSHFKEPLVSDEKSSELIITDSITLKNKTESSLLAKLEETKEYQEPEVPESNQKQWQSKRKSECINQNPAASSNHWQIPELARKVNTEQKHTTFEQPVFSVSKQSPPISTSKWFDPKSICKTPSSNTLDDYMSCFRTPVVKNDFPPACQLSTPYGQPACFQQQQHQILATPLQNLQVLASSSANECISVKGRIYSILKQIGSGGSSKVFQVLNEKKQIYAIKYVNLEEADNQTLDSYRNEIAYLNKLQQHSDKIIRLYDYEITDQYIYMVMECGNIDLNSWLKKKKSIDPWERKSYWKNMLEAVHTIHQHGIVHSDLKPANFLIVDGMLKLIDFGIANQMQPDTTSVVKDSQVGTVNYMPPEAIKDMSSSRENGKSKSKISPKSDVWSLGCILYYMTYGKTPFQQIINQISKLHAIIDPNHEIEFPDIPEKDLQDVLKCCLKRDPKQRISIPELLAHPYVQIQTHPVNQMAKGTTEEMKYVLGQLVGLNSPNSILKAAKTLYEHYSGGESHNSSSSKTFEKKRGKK
Sequence of PLK4 (human) (O00444 whole entry, looked up): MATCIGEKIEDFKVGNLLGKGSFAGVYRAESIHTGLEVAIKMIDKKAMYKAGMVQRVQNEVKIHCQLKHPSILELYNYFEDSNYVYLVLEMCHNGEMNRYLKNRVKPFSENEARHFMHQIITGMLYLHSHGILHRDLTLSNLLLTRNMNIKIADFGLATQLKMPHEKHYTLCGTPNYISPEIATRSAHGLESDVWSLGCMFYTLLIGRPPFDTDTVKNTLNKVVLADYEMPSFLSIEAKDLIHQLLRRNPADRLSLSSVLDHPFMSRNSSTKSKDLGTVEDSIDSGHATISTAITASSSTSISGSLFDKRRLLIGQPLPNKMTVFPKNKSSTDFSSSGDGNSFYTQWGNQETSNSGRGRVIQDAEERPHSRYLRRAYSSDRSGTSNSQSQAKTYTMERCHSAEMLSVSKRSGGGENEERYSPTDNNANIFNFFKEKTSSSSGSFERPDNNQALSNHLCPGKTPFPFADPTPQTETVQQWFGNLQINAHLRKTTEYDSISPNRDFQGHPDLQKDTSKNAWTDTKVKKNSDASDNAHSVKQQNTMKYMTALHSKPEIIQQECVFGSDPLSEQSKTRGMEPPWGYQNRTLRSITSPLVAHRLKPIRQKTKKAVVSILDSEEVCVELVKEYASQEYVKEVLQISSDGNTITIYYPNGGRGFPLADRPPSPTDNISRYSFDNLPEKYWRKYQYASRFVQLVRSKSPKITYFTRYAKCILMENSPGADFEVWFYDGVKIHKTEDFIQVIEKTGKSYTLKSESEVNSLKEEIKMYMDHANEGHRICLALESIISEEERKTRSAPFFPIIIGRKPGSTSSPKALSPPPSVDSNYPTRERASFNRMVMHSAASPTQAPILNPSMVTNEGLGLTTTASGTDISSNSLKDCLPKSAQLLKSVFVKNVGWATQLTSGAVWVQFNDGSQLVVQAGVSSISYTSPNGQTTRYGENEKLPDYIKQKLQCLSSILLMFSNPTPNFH
Sequence of DAPK2 (human) (Q9UIK4 whole entry, looked up): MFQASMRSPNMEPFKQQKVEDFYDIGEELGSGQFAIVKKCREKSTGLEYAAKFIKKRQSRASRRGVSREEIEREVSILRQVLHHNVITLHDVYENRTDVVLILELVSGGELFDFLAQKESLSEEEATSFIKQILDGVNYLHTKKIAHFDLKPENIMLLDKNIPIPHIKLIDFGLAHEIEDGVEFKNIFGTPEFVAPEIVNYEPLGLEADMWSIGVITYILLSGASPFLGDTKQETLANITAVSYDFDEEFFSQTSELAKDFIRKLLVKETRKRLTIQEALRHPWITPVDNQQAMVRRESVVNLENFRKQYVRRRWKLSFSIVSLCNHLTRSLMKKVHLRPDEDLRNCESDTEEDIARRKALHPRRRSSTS
Sequence of DAPK3 (human) (O43293 whole entry, looked up): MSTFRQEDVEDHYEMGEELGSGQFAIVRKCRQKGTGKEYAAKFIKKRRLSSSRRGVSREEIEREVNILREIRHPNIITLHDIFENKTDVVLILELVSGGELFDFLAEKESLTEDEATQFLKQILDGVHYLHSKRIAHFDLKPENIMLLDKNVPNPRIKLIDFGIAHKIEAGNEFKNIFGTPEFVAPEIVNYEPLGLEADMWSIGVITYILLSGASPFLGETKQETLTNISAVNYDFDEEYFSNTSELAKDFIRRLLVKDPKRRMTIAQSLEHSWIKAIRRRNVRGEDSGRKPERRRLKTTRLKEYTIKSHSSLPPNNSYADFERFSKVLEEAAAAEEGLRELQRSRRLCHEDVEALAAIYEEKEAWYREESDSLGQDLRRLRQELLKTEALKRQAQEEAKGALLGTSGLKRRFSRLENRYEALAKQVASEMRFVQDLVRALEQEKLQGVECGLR
Sequence of PIM2 (human) (Q9P1W9 whole entry, looked up): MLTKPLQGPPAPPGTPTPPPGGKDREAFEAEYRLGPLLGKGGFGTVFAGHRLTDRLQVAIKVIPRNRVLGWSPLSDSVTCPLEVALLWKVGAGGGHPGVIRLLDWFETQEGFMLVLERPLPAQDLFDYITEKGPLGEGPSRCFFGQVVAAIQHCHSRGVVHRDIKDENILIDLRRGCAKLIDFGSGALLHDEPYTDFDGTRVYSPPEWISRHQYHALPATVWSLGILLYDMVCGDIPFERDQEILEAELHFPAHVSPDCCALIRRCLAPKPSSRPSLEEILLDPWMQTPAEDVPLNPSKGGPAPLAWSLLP
Sequence of PIM1 (human) (P11309 whole entry, looked up): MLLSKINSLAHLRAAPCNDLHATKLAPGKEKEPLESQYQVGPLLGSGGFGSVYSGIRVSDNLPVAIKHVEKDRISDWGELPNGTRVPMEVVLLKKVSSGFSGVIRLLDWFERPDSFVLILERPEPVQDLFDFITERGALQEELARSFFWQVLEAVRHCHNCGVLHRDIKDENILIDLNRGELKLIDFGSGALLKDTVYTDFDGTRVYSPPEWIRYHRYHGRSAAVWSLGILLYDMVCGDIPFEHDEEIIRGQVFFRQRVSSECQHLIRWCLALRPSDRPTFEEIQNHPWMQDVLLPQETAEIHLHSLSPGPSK
Sequence of DAPK1 (human) (P53355 whole entry, looked up): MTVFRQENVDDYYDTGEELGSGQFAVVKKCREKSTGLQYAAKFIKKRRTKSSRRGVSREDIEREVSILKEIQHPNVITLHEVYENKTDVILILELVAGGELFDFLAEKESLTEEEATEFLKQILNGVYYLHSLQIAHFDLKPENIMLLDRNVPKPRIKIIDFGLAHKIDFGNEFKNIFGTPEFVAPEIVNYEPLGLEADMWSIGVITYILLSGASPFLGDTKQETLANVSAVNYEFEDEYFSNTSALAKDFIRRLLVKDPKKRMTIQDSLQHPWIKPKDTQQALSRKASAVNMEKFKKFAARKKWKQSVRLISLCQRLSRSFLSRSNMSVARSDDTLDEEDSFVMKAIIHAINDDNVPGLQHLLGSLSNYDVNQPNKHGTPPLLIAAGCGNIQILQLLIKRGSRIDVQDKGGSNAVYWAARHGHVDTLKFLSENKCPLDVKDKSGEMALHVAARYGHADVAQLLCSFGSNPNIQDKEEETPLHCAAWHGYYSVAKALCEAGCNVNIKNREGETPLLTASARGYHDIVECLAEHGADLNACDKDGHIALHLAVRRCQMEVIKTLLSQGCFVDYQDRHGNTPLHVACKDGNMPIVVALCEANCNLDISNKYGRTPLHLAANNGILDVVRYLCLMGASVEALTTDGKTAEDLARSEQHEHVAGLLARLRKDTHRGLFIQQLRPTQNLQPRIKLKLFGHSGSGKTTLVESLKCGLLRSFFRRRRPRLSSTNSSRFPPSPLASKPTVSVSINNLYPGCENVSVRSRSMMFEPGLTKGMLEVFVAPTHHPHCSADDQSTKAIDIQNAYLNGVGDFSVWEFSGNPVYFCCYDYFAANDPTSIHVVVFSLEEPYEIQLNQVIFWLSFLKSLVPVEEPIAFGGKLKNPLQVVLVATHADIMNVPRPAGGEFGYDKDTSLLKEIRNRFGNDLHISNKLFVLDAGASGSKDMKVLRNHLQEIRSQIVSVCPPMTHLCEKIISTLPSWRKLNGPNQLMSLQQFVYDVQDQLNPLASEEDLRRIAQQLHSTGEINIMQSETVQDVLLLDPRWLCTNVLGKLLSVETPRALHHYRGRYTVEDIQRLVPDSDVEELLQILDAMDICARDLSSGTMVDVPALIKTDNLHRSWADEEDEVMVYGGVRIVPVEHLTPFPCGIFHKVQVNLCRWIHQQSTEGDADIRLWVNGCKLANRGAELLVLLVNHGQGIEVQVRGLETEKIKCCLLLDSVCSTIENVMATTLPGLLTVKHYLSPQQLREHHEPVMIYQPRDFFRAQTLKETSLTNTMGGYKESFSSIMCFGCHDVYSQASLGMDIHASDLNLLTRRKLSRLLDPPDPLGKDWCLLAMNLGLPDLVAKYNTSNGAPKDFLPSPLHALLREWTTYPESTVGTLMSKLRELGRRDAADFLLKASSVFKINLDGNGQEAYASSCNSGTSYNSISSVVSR
Sequence of MAP2K3 (human) (P46734 whole entry, looked up): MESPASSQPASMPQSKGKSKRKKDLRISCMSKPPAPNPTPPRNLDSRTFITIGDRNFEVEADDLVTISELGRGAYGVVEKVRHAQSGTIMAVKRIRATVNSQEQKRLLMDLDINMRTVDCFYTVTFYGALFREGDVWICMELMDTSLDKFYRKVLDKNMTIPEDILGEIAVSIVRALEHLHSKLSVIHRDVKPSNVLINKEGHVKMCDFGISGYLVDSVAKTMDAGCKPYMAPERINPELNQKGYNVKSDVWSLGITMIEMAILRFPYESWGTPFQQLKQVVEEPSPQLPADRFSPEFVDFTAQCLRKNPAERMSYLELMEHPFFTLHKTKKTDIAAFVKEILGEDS

- kinase still bound, per cent of control (PIM2 (human) [1]): 3.3%
- kinase still bound, per cent of control (MAP4K4 (human)): 18%
- kinase still bound, per cent of control (PIK3CG (human)): 10%
- kinase still bound, per cent of control [2]: 17%
- kinase still bound, per cent of control (DAPK1 (human)): 2.3%
- kinase still bound, per cent of control (PLK4 (human)): 4.7%
- kinase still bound, per cent of control (CDK16 (human)): 9.3%
- kinase still bound, per cent of control (CDK7 (human)): 29%
- kinase still bound, per cent of control (MINK1 (human)): 32%
- kinase still bound, per cent of control (PIK3CB (human)): 31%
- kinase still bound, per cent of control (BTK (human)): 17%
- kinase still bound, per cent of control (HIPK1 (human)): 3.4%
- kinase still bound, per cent of control (PIK3CA (human)): 12%
- kinase still bound, per cent of control (CSNK2A2 (human)): 21%
- kinase still bound, per cent of control (DAPK2 (human)): 3.4%
- kinase still bound, per cent of control (RPS6KA4 KD2 (human)): 18%
- kinase still bound, per cent of control (LATS2 (human)): 21%
- kinase still bound, per cent of control (STK17B (human)): 5.2%
- kinase still bound, per cent of control (DAPK3 (human)): 8%
- kinase still bound, per cent of control (CSNK2A1 (human)): 15%
- kinase still bound, per cent of control (TAOK1 (human)): 12%
- kinase still bound, per cent of control (PIM1 (human) [3]): 2.4%
- kinase still bound, per cent of control (MAP2K3 (human)): 33%
- kinase still bound, per cent of control (PIK3CD (human)): 30%
- kinase still bound, per cent of control (PIM3 (human)): 2.8%
- pIC50 (PIM2 (human) [4]): 6.78
- pIC50 (PIM1 (human) [5]): 6.53
Compound: CS(=O)C1=NC(=O)/C(=C/c2ccc(-c3ccc(S(N)(=O)=O)cc3)o2)S1 (stereo not drawn)

- kinase still bound, per cent of control (IGF1R (human)): 20%
- kinase still bound, per cent of control (CLK1 (human)): 27%
- kinase still bound, per cent of control (DCLK2 (human)): 8.6%
- kinase still bound, per cent of control (PTK2B (human)): 26%
- kinase still bound, per cent of control (DCLK1 (human)): 6.1%
- kinase still bound, per cent of control (FER (human)): 33%
- kinase still bound, per cent of control (DAPK1 (human)): 4%
- kinase still bound, per cent of control (RPS6KA2 KD2 (human)): 14%
- kinase still bound, per cent of control (ALK (human)): 16%
- kinase still bound, per cent of control (STK33 (human)): 5.2%
- kinase still bound, per cent of control (PLK4 (human)): 11%
- kinase still bound, per cent of control (INSR (human)): 32%
- kinase still bound, per cent of control (SLK (human)): 12%
- kinase still bound, per cent of control (RPS6KA1 KD2 (human)): 25%
- kinase still bound, per cent of control (DAPK2 (human)): 12%
- kinase still bound, per cent of control (RPS6KA6 KD2 (human)): 14%
- kinase still bound, per cent of control (TNK1 (human)): 28%
- kinase still bound, per cent of control (CAMK2A (human)): 21%
- kinase still bound, per cent of control (DAPK3 (human)): 11%
- pKd (TTK (human) [6]): 6.24
- kinase still bound, per cent of control (TTK (human) [6]; compound 10.0 µM): 5.2%
- kinase still bound, per cent of control (GAK (human)): 4.2%
- kinase still bound, per cent of control (PTK2 (human)): 2.6%
- kinase still bound, per cent of control (PRKD3 (human)): 32%
- kinase still bound, per cent of control (PLK3 (human)): 0%
- kinase still bound, per cent of control (CLK2 (human)): 21%
- kinase still bound, per cent of control (CAMK1D (human)): 29%
- kinase still bound, per cent of control (MYLK (human)): 2.2%
- kinase still bound, per cent of control (PRKD1 (human)): 28%
- kinase still bound, per cent of control (INSRR (human)): 19%
- pIC50 (TTK (human) [7]): 5.64
Compound: COc1cc(C(=O)NC2CCN(C)CC2)ccc1Nc1ncc2c(n1)N(C1CCCC1)CCC(=O)N2C
